The text below walks through data of PubChem BioAssay AID330 (DTP/NCI, 2004).

This assay relates to P388 leukemia ip, CD2F1 mice, survival T/C. Put plainly: NCI In Vivo Anticancer Drug Screen. Data for tumor model P388 Leukemia (intraperitoneal) in CD2F1 (CDF1) mice. To be noted: endpoint: median survival time, higher = longer survival. In short, it runs like this:
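Mice carrying the transplanted tumor received test compound or vehicle. Survival was recorded in each group, and the value is the treated-group measurement divided by that of the vehicle-treated control group.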

Setting [1] is: dose: 12.5 mg/kg/injection, schedule: Q01DX009 (ip), vehicle: saline with Tween-80.
[2] abbreviates: dose: 25.0 mg/kg/injection, schedule: Q01DX009 (ip), vehicle: saline with Tween-80.
[3] abbreviates: dose: 50.0 mg/kg/injection, schedule: Q01DX009 (ip), vehicle: saline with Tween-80.
[4] abbreviates: dose: 100.0 mg/kg/injection, schedule: Q01DX009 (ip), vehicle: saline with Tween-80.
The mark [5] stands for this setting: dose: 100.0 mg/kg/injection, schedule: Q04DX003 (ip), vehicle: Klucel (hydroxypropylcellulose) (HPC).
Where [6] appears, read: dose: 200.0 mg/kg/injection, schedule: Q04DX003 (ip), vehicle: Klucel (hydroxypropylcellulose) (HPC).
Where [7] appears, read: dose: 400.0 mg/kg/injection, schedule: Q04DX003 (ip), vehicle: Klucel (hydroxypropylcellulose) (HPC).
The mark [8] stands for this setting: dose: 60.0 mg/kg/injection, schedule: Q01DX005 (ip), vehicle: Klucel (hydroxypropylcellulose) (HPC).
Where [9] appears, read: dose: 120.0 mg/kg/injection, schedule: Q01DX005 (ip), vehicle: Klucel (hydroxypropylcellulose) (HPC).
Setting [10] is: dose: 240.0 mg/kg/injection, schedule: Q01DX005 (ip), vehicle: Klucel (hydroxypropylcellulose) (HPC).
Where [11] appears, read: dose: 50.0 mg/kg/injection, schedule: Q01DX005 (ip), vehicle: saline with Tween-80.
[12] abbreviates: dose: 100.0 mg/kg/injection, schedule: Q01DX005 (ip), vehicle: saline with Tween-80.
Where [13] appears, read: dose: 6.25 mg/kg/injection, schedule: Q01DX009 (ip), vehicle: saline with Tween-80.
Setting [14] is: dose: 200.0 mg/kg/injection, schedule: Q01DX009 (ip), vehicle: saline with Tween-80.
Where [15] appears, read: dose: 25.0 mg/kg/injection, schedule: Q01DX005 (ip), vehicle: Klucel (hydroxypropylcellulose) (HPC).
[16] abbreviates: dose: 50.0 mg/kg/injection, schedule: Q01DX005 (ip), vehicle: Klucel (hydroxypropylcellulose) (HPC).
Where [17] appears, read: dose: 100.0 mg/kg/injection, schedule: Q01DX005 (ip), vehicle: Klucel (hydroxypropylcellulose) (HPC).
The mark [18] stands for this setting: dose: 200.0 mg/kg/injection, schedule: Q01DX005 (ip), vehicle: Klucel (hydroxypropylcellulose) (HPC).

Several values for one entry are separate records, joined by “and”; a condition that tells them apart may be missing. Identical values can stand only once. Inconclusive results and toxic doses are left out.

As to `CC12CCCCC1=Nc1ccc3ccccc3c12` (stereo unspecified), the T/C was 92 % of control under setting [1], 90 % of control under setting [2] and 92 % of control under setting [3].

On to `CN(C)c1ccc(C(=N)c2ccc(N(C)C)cc2)cc1` (tested in a mixture with another compound), for which the T/C by setting is: under setting [2], 100 % of control; under setting [3], 95 % of control; under setting [4], 100 % of control.

For `CC(=O)OCc1ccc(/C=c2/[nH]c(=O)/c(=C\c3ccc(COC(C)=O)o3)[nH]c2=O)o1`, the T/C by setting is: (dose: 12.5 mg/kg/injection, schedule: Q01DX009 (ip), vehicle: distilled water + Tween-80) 88 % of control; (dose: 25.0 mg/kg/injection, schedule: Q01DX009 (ip), vehicle: distilled water + Tween-80) 90 % of control; (dose: 50.0 mg/kg/injection, schedule: Q01DX009 (ip), vehicle: distilled water + Tween-80) 96 % of control; (dose: 100.0 mg/kg/injection, schedule: Q01DX009 (ip), vehicle: distilled water + Tween-80) 114 % of control; (dose: 200.0 mg/kg/injection, schedule: Q01DX009 (ip), vehicle: distilled water + Tween-80) 99 % of control.

For `C=C(C)C(=NC(C)(C)C)Nc1ccccc1`, the T/C by setting is: (dose: 10.0 mg/kg/injection, schedule: Q01DX005 (ip), vehicle: saline) 119 % of control; (dose: 12.5 mg/kg/injection, schedule: Q01DX009 (ip), vehicle: Klucel (hydroxypropylcellulose) (HPC)) 121 % of control; under setting [1], 116 % of control; (dose: 25.0 mg/kg/injection, schedule: Q01DX009 (ip), vehicle: Klucel (hydroxypropylcellulose) (HPC)) 106 % of control; (dose: 50.0 mg/kg/injection, schedule: Q01DX009 (ip), vehicle: Klucel (hydroxypropylcellulose) (HPC)) 107 % of control; (dose: 100.0 mg/kg/injection, schedule: Q01DX005 (ip), vehicle: saline) 152 % of control. Also, the T/C (dose: 100.0 mg/kg/injection, schedule: Q01DX009 (ip), vehicle: Klucel (hydroxypropylcellulose) (HPC)) was 107 % of control.

`Nc1cccc2c1C(=O)c1ccccc1C2=O`: the T/C is 100 % of control (dose: 50.0 mg/kg/injection, schedule: Q04DX003 (ip), vehicle: Klucel (hydroxypropylcellulose) (HPC)); 101 % of control under setting [5]; 91 % of control under setting [6]; 92 % of control under setting [7].

For the compound `Brc1cnn(Cn2cc(Br)cn2)c1`, the T/C by setting is: under setting [8], 102 % of control; under setting [9], 102 % of control; under setting [10], 99 % of control.

With `O=C1OC(=O)C(c2ccccc2)(c2ccccc2)C1c1ccccc1` (stereo unspecified), the T/C (dose: 100.0 mg/kg/injection, schedule: Q04DX003 (ip), vehicle: saline with Tween-80) was 112 % of control; the T/C (dose: 200.0 mg/kg/injection, schedule: Q04DX003 (ip), vehicle: saline with Tween-80) was 119 % of control; the T/C (dose: 400.0 mg/kg/injection, schedule: Q04DX003 (ip), vehicle: saline with Tween-80) is 112 % of control.

As for `CN(C)/C=C\c1c([N+](=O)[O-])ncn1C`, the T/C under setting [11] is 99 % of control; the T/C under setting [12] is 99 % of control; the T/C (dose: 200.0 mg/kg/injection, schedule: Q01DX005 (ip), vehicle: saline with Tween-80) is 97 % of control.

`FC(F)(F)C1(C(F)(F)F)OS2(OC1(C(F)(F)F)C(F)(F)F)OC(C(F)(F)F)(C(F)(F)F)C(C(F)(F)F)(C(F)(F)F)O2`: the T/C reads like this: under setting [5], 91 % of control; under setting [6], 91 % of control; under setting [7], 105 % of control.

Regarding `C[C@@H]1C[C@H](C)S(=O)[C@H](C)S1` (stereo partly specified), the T/C reads like this: (dose: 100.0 mg/kg/injection, schedule: Q04DX002 (ip), vehicle: saline) 101 % of control; (dose: 200.0 mg/kg/injection, schedule: Q04DX002 (ip), vehicle: saline) 102 % of control; (dose: 400.0 mg/kg/injection, schedule: Q04DX002 (ip), vehicle: saline) 100 % of control.

`Clc1ccc(N=Cc2c3ccccc3cc3ccccc23)c(Cl)c1`: the T/C reads like this: under setting [13], 101 % of control; under setting [1], 101 % of control; under setting [2], 93 % of control.

`CCOC(=O)C1CSC(c2c(CO)cnc(C)c2O)N1` (stereo unspecified): the T/C under setting [8] was 100 % of control, the T/C under setting [9] was 99 % of control and the T/C under setting [10] is 99 % of control.

On to `CCOP(=O)(OCC)SCSC(C)C`, for which the T/C is 102 % of control (dose: 0.04 mg/kg/injection, schedule: Q01DX009 (ip), vehicle: Klucel (hydroxypropylcellulose) (HPC)); 102 % of control (dose: 0.09 mg/kg/injection, schedule: Q01DX009 (ip), vehicle: Klucel (hydroxypropylcellulose) (HPC)); 108 % of control (dose: 0.19 mg/kg/injection, schedule: Q01DX009 (ip), vehicle: Klucel (hydroxypropylcellulose) (HPC)).

Regarding `FC(F)(F)c1ccc2c3c(c4c(c2n1)OCN(Cc1ccc(Cl)cc1Cl)C4)CN(Cc1ccc(Cl)cc1Cl)CO3`, the T/C reads like this: (dose: 100.0 mg/kg/injection, schedule: Q01DX001 (ip), vehicle: other) 93 % of control; (dose: 200.0 mg/kg/injection, schedule: Q01DX001 (ip), vehicle: other) 93 % of control; (dose: 400.0 mg/kg/injection, schedule: Q01DX001 (ip), vehicle: other) 100 % of control.

Turning to `O=C1c2ccccc2C(=O)c2c1c([N+](=O)[O-])c1c(c2[N+](=O)[O-])OCO1`, the T/C reads like this: (dose: 60.0 mg/kg/injection, schedule: Q01DX005 (ip), vehicle: saline with Tween-80) 86 % of control; (dose: 120.0 mg/kg/injection, schedule: Q01DX005 (ip), vehicle: saline with Tween-80) 86 % of control; (dose: 240.0 mg/kg/injection, schedule: Q01DX005 (ip), vehicle: saline with Tween-80) 96 % of control.

For `NC(N)=O.NC(N)=O.NC(N)=O.NC(N)=O.NC(N)=O.NC(N)=O.[Fe+3].[O-][Cl+3]([O-])([O-])O`, the T/C was 96 % of control under setting [3], 91 % of control under setting [4] and 102 % of control under setting [14].

For `CCCCC(CC)CN1CN(CC(CC)CCCC)CC(C)(N)C1` (stereo unspecified), the T/C was 100 % of control under setting [11] and 98 % of control under setting [12].

For `CCCCOc1cc(C(=O)NCCN(CC)CC)c2ccccc2n1`, the T/C under setting [13] is 100 % of control, the T/C under setting [1] is 113 % of control and the T/C under setting [2] is 100 % of control.

With `OCCN1CCN(CC/C=C2\c3ccccc3COc3ccc(Cl)cc32)CC1`, the T/C was 100 % of control (dose: 6.25 mg/kg/injection, schedule: Q04DX003 (ip), vehicle: saline); 114 % of control and 117 % of control (dose: 12.5 mg/kg/injection, schedule: Q04DX003 (ip), vehicle: saline); 110 % of control (dose: 25.0 mg/kg/injection, schedule: Q04DX003 (ip), vehicle: saline); 110 % of control (dose: 50.0 mg/kg/injection, schedule: Q04DX003 (ip), vehicle: saline); 97 % of control (dose: 100.0 mg/kg/injection, schedule: Q04DX003 (ip), vehicle: saline).

Turning to `Cc1ccc(/C=N/O)cc1`, the T/C reads like this: under setting [15], 97 % of control; under setting [16], 98 % of control; under setting [17], 99 % of control; under setting [18], 98 % of control.

Consider `CN(C)CCNc1cccc2oc3ccc(O)cc3c(=O)c12`, for which the T/C under setting [15] is 101 % of control, the T/C under setting [16] was 107 % of control, the T/C under setting [17] was 110 % of control and the T/C under setting [18] is 114 % of control.

`NC1C2CC3CC(C2)CC1(N)C3` (stereo unspecified): the T/C was 104 % of control under setting [1]; 102 % of control under setting [2]; 101 % of control and 96 % of control under setting [3]; 99 % of control under setting [4]; 99 % of control under setting [14].

For the compound `CC(C)(C)C(=O)NC(Cc1cnc[nH]1)C(=O)O` (stereo unspecified), the T/C is 100 % of control (dose: 50.0 mg/kg/injection, schedule: Q01DX009 (ip), vehicle: saline); 106 % of control (dose: 100.0 mg/kg/injection, schedule: Q01DX009 (ip), vehicle: saline); 108 % of control (dose: 200.0 mg/kg/injection, schedule: Q01DX009 (ip), vehicle: saline).
